Data reported in patent US9206130B2, “Quinoline derivatives as AXL kinase inhibitors” (Max-Planck-Gesellschaft zur Förderung der Wissenschaften …, priority 2008, dated 2015).

Experiments:
[1] = target: T1, wild type AXL (wtAXL) receptor tyrosine kinase (Homo sapiens, UniProt P30530); assay: NIH-3T3-AXL cellular tyrosine kinase assay (inhibition of AXL phosphorylation); format: cell-based; details: AXL phosphorylation in NIH-3T3-AXL (clone 22) cells, serum-depleted, 2 h with compound, immunoprecipitation / anti-phosphotyrosine blot
T1 construct: WtAXL cDNA was cloned into vector pLXSN(ESK) and transfected into Phoenix E packaging cells; expressed in transfected cells; host or cells: NIH3T3 N7 mouse fibroblasts, retrovirally infected (clone 22)
T1 sequence (P30530 26-894): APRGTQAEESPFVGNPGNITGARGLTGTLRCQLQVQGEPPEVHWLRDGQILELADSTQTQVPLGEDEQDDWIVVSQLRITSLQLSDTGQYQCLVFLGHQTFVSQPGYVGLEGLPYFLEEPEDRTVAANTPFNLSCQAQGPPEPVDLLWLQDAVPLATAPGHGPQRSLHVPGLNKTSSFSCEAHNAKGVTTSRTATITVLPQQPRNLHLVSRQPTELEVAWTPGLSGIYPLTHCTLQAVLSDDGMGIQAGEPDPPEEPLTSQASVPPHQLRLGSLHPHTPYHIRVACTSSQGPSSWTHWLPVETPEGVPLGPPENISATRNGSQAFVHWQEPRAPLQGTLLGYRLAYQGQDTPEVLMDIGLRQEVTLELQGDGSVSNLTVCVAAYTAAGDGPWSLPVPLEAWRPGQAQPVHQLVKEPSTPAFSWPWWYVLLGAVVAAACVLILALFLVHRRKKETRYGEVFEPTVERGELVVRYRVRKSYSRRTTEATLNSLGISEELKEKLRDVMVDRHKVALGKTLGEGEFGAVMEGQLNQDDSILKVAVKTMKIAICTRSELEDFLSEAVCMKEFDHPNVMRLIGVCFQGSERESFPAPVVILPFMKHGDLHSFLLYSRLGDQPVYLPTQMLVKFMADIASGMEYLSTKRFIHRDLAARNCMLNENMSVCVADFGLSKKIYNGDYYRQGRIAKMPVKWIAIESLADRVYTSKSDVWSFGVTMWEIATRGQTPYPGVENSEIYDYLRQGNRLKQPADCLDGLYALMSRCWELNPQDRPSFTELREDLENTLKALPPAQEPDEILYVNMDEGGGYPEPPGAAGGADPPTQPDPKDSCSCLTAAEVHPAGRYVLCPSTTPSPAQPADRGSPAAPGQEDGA
Procedure: 3) Inhibitory Activity of Compounds on Axl Phosphorylation in NIH-3T3-AXL Cellular Tyrosine Kinase Assay
The viral supernatant was collected and used to infect target cells NIH3T3 N7. Monoclonal NIH3T3-AXL cell lines stably expressing wtAXL were generated by selecting retrovirally infected cells in medium containing puromycin (2 μg/ml) and subsequent clonal separation.
NIH-3T3-AXL Cellular Kinase Assay
Serial dilutions of compounds were added, and the cells were further incubated or 2 h. […] The clarified cell lysate (10 min at 13000 rpm at 4° C.) were used for immunoprecipitation. Equal amounts of protein were mixed with 2 μg anti-AXL polyclonal antibody (homemade) and 20 μl Protein A sepharose beads, and rotated for 6 hr at 4° C. After immunoprecipitation, the beads were washed three times with 1×HNTG (50 mM HEPES (pH 7.5), 150 mM NaCl, 10% Glycerol, 0.2% Triton X-100). The final pellet was suspended in 20 μl 2× Laemmli buffer, and boiled for 5 min at 100° C. […] The membrane was then incubated with anti-phosphotyrosine antibody (4G10) overnight at 4° C. followed by washing with 1×TBST buffer three times. After incubating membrane with HRP-conjugated anti-mouse secondary antibody for 1 hour at room temperature followed by washing with 1×TBST buffer three times, the proteins were visualized by ECL.

IC50 [1]	melting point	SMILES
> 3 µM	127 to 130 °C	COc1cc2c(Oc3ccc(NS(=O)(=O)c4ccccc4C(F)(F)F)c(C)c3)ccnc2cc1OCCN1CCOCC1 [Example D11, N-{4-[6-Methoxy-7-(2-morpholin-4-yl-ethoxy)-quinolin-4-yloxy]-2-methyl-phenyl}-2-trifluoromethyl-benzenesulfonamide]
3.9 µM	187 to 189 °C	COc1cc2nccc(Oc3ccc(NS(=O)(=O)c4ccc(Cl)s4)c(F)c3)c2cc1OC [Example A28, 5-Chloro-thiophene-2-sulfonic acid [4-(6,7-dimethoxy-quinolin-4-yloxy)-2-fluoro-phenyl]-amide]
> 1 µM	202 to 204 °C	COc1cc(S(=O)(=O)Nc2ccc(Oc3ccnc4cc(OC)c(OC)cc34)c(F)c2)ccc1F [Example A109, N-[4-(6,7-Dimethoxy-quinolin-4-yloxy)-3-fluoro-phenyl]-4-fluoro-3-methoxy-benzenesulfonamide]
> 3 µM	202 to 204 °C	COc1cc2nccc(Oc3ccc(NS(=O)(=O)c4ccc(Oc5ccccc5)cc4)c(F)c3)c2cc1OC [Example A57, N-[4-(6,7-Dimethoxy-quinolin-4-yloxy)-2-fluoro-phenyl]-4-phenoxy-benzenesulfonamide]
0.082 µM	102 to 106 °C	COc1cc2c(Oc3ccc(NS(=O)(=O)c4ccccc4F)cc3F)ccnc2cc1OCCCN1CCCC(C)C1 (stereo not drawn) [Example D30, 2-Fluoro-N-(3-fluoro-4-{6-methoxy-7-[3-(3-methyl-piperidin-1-yl)-propoxy]-quinolin-4-yloxy}-phenyl)-benzenesulfonamide]
> 1 µM	137 to 140 °C	COc1cc2nccc(Oc3ccc(NS(=O)(=O)c4cccc(-c5ncccn5)c4)c(F)c3)c2cc1OC [Example A102, N-[4-(6,7-Dimethoxy-quinolin-4-yloxy)-2-fluoro-phenyl]-3-pyrimidin-2-yl-benzenesulfonamide]
> 10 µM	232 to 234 °C	Cc1cc(Oc2ccc(NS(=O)(=O)c3cccc4ccccc34)c(F)c2)c2cccc(C(F)(F)F)c2n1 [Example C04, Naphthalene-1-sulfonic acid [2-fluoro-4-(2-methyl-8-trifluoromethyl-quinolin-4-yloxy)-phenyl]-amide]
1.5 µM	242 to 244 °C	COc1cc2nccc(Oc3ccc(NS(=O)(=O)c4ccc(Br)cc4C(F)(F)F)c(F)c3)c2cc1OC [Example A48, 4-Bromo-N-[4-(6,7-dimethoxy-quinolin-4-yloxy)-2-fluoro-phenyl]-2-trifluoromethyl-benzenesulfonamide]
1.68 µM	239 to 240 °C	COc1cc2nccc(Oc3ccc(NS(=O)(=O)c4cc(F)ccc4F)cc3C)c2cc1OC [Example A131, N-[4-(6,7-Dimethoxy-quinolin-4-yloxy)-3-methyl-phenyl]-2,5-difluoro-benzenesulfonamide]
> 10 µM	206 to 208 °C	COc1cc2nccc(Oc3ccc(NS(=O)(=O)c4ccc(-c5cnco5)s4)c(F)c3)c2cc1OC [Example A37, 5-Oxazol-5-yl-thiophene-2-sulfonic acid [4-(6,7-dimethoxy-quinolin-4-yloxy)-2-fluoro-phenyl]-amide]
> 10 µM	166 to 167 °C	Cc1cc(Oc2ccc(NS(=O)(=O)c3cccs3)c(F)c2)c2cc(F)ccc2n1 [Example B1, Thiophene-2-sulfonic acid [2-fluoro-4-(6-fluoro-2-methyl-quinolin-4-yloxy)-phenyl]-amide]
> 10 µM	195 to 197 °C	COc1cc2nccc(Oc3ccc(NS(=O)(=O)c4ccc5c(c4)CC(=O)N5C)c(F)c3)c2cc1OC [Example A137, 1-Methyl-2-oxo-2,3-dihydro-1H-indole-5-sulfonic acid [4-(6,7-dimethoxy-quinolin-4-yloxy)-2-fluoro-phenyl]-amide]
> 3 µM	206 to 208 °C	COc1cc2nccc(Oc3ccc(NS(=O)(=O)c4cc(Cl)cc(Cl)c4OC)cc3C)c2cc1OC [Example A127, 3,5-Dichloro-N-[4-(6,7-dimethoxy-quinolin-4-yloxy)-3-methyl-phenyl]-2-methoxy-benzenesulfonamide]
> 10 µM	108 to 110 °C	COc1cc2nccc(Oc3ccc(NS(=O)(=O)c4cccc(-c5ccccc5)c4)cc3OC)c2cc1OC [Example A138, Biphenyl-3-sulfonic acid [4-(6,7-dimethoxy-quinolin-4-yloxy)-3-methoxy-phenyl]-amide]
0.75 µM	155 to 158 °C	COc1cc2nccc(Oc3ccc(NS(=O)(=O)c4cc(Cl)cc(Cl)c4OC)cc3F)c2cc1OC [Example A106, 3,5-Dichloro-N-[4-(6,7-dimethoxy-quinolin-4-yloxy)-3-fluoro-phenyl]-2-methoxy-benzenesulfonamide]
0.47 µM	158 to 160 °C	CCOc1ccc(S(=O)(=O)Nc2ccc(Oc3ccnc4cc(OC)c(OC)cc34)cc2F)cc1C [Example A62, N-[4-(6,7-Dimethoxy-quinolin-4-yloxy)-2-fluoro-phenyl]-4-ethoxy-3-methyl-benzenesulfonamide]
> 10 µM	106 to 107 °C	COc1cc2nccc(Oc3ccc(NS(=O)(=O)c4cccc(Oc5ccccc5)c4)cc3OC)c2cc1OC [Example A120, N-[4-(6,7-Dimethoxy-quinolin-4-yloxy)-3-methoxy-phenyl]-3-phenoxy-benzenesulfonamide]
> 10 µM	183 to 185 °C	Cc1cc(Oc2ccc(NS(=O)(=O)c3ccccc3C(F)(F)F)c(F)c2)c2cccc(C(F)(F)F)c2n1 [Example C07, N-[2-Fluoro-4-(2-methyl-8-trifluoromethyl-quinolin-4-yloxy)-phenyl]-2-trifluoromethyl-benzenesulfonamid]
> 10 µM	229 to 231 °C	COc1cc2nccc(Oc3ccc(NS(=O)(=O)c4ccc(OC)c(C(C)(C)C)c4)cc3)c2cc1OC [Example A70, 3-tert-Butyl-N-[4-(6,7-dimethoxy-quinolin-4-yloxy)-phenyl]-4-methoxy-benzenesulfonamide]
0.323 µM	131 to 132 °C	COc1cc2c(Oc3ccc(NS(=O)(=O)c4ccccc4C#N)cc3F)ccnc2cc1OCCCN1CCCC(C)C1 (stereo not drawn) [Example D31, 2-Cyano-N-(3-fluoro-4-{6-methoxy-7-[3-(3-methyl-piperidin-1-yl)-propoxy]-quinolin-4-yloxy}-phenyl)-benzenesulfonamide]
> 10 µM	115 to 116 °C	COc1cc2nccc(Oc3ccc(NS(=O)(=O)c4ccc5c(c4)CC(=O)N5C)c(C)c3)c2cc1OC [Example A95, 1-Methyl-2-oxo-2,3-dihydro-1H-indole-5-sulfonic acid [4-(6,7-dimethoxy-quinolin-4-yloxy)-2-methyl-phenyl]-amide]
> 3 µM	> 260 °C	COc1cc2nccc(Oc3ccc(NS(=O)(=O)c4cc(Cl)c(O)c(Cl)c4)cc3)c2cc1OC [Example A155, 3,5-Dichloro-N-[4-(6,7-dimethoxy-quinolin-4-yloxy)-phenyl]-4-hydroxy-benzenesulfonamide]
> 10 µM	207 to 209 °C	Cc1cc(Oc2ccc(NS(=O)(=O)c3cc(Cl)ccc3Cl)c(F)c2)c2cccc(C(F)(F)F)c2n1 [Example C05, 2,5-Dichloro-N-[2-fluoro-4-(2-methyl-8-trifluoromethyl-quinolin-4-yloxy)-phenyl]-benzenesulfonamid]
> 10 µM	212 to 213 °C	COc1cc2nccc(Oc3ccc(NS(=O)(=O)c4ccc(Br)c(Cl)c4)c(C)c3)c2cc1OC [Example A152, 4-Bromo-3-chloro-N-[4-(6,7-dimethoxy-quinolin-4-yloxy)-2-methyl-phenyl]-benzenesulfonamide]
